Test results published in PMC3044687, “The C-Terminal Domain of the Arabinosyltransferase Mycobacterium tuberculosis EmbC Is a Lectin-Like Carbohydrate Binding Module” (PLoS Pathogens, 2011).

Tests used:
Format in all cases: binding
EmbC^CT(W868A) = EmbC^CT(W868A) (Mycobacterium tuberculosis, UniProt P9WNL5, W868A)
EmbC^CT(W985A) = EmbC^CT(W985A) (Mycobacterium tuberculosis, UniProt P9WNL5, W985A)
EmbC^CT(H911A) = EmbC^CT(H911A) (Mycobacterium tuberculosis, UniProt P9WNL5, H911A)
EmbC^CT(N740A) = EmbC^CT(N740A) (Mycobacterium tuberculosis, UniProt P9WNL5, N740A)

Question: Which results are given for CCCCCCCCO[C@H]1O[C@H](CO[C@H]2O[C@H](CO[C@H]3O[C@H](CO[C@H]4O[C@H](CO[C@H]5O[C@H](CO)[C@@H](O)[C@@H]5O)[C@@H](O)[C@@H]4O)[C@@H](O)[C@@H]3O)[C@@H](O)[C@@H]2O)[C@@H](O)[C@@H]1O [Ara(1→5)4Ara-O-C8, [α-D-Araf-(1→5)]4-α-D-Araf-O-(CH2)7CH3]?
Answer: effect of W868A mutation on ligand binding (in words) (EmbC^CT(W868A)): completely inhibited; Fmax (EmbC^CT(W985A)): 0.164; effect of W985A mutation on ligand binding (in words) (EmbC^CT(W985A)): insensitive

Question: What does the source list for CCCCCCCCO[C@H]1O[C@H](CO[C@H]2O[C@H](CO)[C@@H](O)[C@@H]2O)[C@@H](O)[C@@H]1O [Ara(1→5)Ara-O-C8, α-D-Araf-(1→5)-α-D-Araf-O-(CH2)7CH3]?
Answer: Fmax (EmbC^CT(W868A)): 0.162; effect of W868A mutation on ligand binding (in words) (EmbC^CT(W868A)): preserved binding; Fmax (EmbC^CT(H911A)): 0.170; effect of W985A mutation on ligand binding (in words) (EmbC^CT(W985A)): virtually abrogated binding; Fmax (EmbC^CT(N740A)): 0.141
